Measurements: ChEMBL document CHEMBL1146261, “Design of potent inhibitors of human beta-secretase. Part 2” (Bioorg Med Chem Lett, 2007)

Assays:
Beta-secretase 1 [1] = target: T1, Beta-secretase 1 (Homo sapiens, UniProt P56817); assay: Inhibition of BACE
Beta-secretase 1 [2] = target: T1, Beta-secretase 1; assay: Inhibition of BACE expressed in HEK293 cells; type: cell-based

T1 sequence (P56817 whole entry): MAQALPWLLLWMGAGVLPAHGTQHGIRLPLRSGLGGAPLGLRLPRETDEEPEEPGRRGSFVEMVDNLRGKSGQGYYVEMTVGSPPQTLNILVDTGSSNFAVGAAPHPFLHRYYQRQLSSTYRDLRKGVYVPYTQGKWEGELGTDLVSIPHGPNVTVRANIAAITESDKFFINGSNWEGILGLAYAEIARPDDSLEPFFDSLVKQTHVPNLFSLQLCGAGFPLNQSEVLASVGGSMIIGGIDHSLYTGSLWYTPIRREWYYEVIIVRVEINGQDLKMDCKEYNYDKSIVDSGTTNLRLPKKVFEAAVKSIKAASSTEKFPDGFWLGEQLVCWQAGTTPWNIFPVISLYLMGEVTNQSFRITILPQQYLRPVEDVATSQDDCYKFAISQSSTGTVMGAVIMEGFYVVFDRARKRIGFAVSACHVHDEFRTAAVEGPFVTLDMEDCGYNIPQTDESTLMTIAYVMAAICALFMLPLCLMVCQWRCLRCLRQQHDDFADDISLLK

In the case of `CCCCS(=O)(=O)C[C@@H](NC(=O)c1cnccc1O)C(=O)N[C@@H](Cc1cc(F)cc(F)c1)[C@H](O)CNCc1cccc(CC)c1`, the IC50 (Beta-secretase 1 [1]) is reported as 5 nM and the EC50 (Beta-secretase 1 [2]) is reported as 24 nM.

Compound `CCCC(CCC)S(=O)(=O)C[C@@H](NC(=O)OCc1cccnc1)C(=O)N[C@@H](Cc1cc(F)cc(F)c1)[C@H](O)CNCc1cccc(CC)c1` has an IC50 (Beta-secretase 1 [1]) of 4 nM and an EC50 (Beta-secretase 1 [2]) of 5 nM.

`CCCC(CCC)S(=O)(=O)C[C@@H](NC(=O)OC)C(=O)N[C@@H](Cc1cc(F)cc(F)c1)[C@H](O)CNCc1cccc(CC)c1` was tested, and the IC50 (Beta-secretase 1 [1]) was 3 nM and the EC50 (Beta-secretase 1 [2]) was 2 nM.

Compound `CCCC(CCC)S(=O)(=O)C[C@@H](NC(=O)c1cccc(Cl)c1)C(=O)N[C@@H](Cc1cc(F)cc(F)c1)[C@H](O)CNCc1cccc(CC)c1` has an IC50 (Beta-secretase 1 [1]) of 5 nM and an EC50 (Beta-secretase 1 [2]) of 48 nM.

`CCCCS(=O)(=O)C[C@@H](NC(=O)OCCNC(C)=O)C(=O)N[C@@H](Cc1cc(F)cc(F)c1)[C@H](O)CNCc1cccc(CC)c1` gave an IC50 (Beta-secretase 1 [1]) of 27 nM and an EC50 (Beta-secretase 1 [2]) of 12 nM.

`CCCCS(=O)(=O)CC(NC(=O)OCCC#N)C(=O)N[C@@H](Cc1cc(F)cc(F)c1)[C@H](O)CNCc1cccc(CC)c1` (some centres undefined) showed an IC50 (Beta-secretase 1 [1]) of 8 nM and an EC50 (Beta-secretase 1 [2]) of 5 nM.

`CCCCS(=O)(=O)C[C@@H](NC(=O)c1ncc[nH]1)C(=O)N[C@@H](Cc1cc(F)cc(F)c1)[C@H](O)CNCc1cccc(CC)c1` was tested, and the IC50 (Beta-secretase 1 [1]) was 4 nM and the EC50 (Beta-secretase 1 [2]) was 4 nM.

`CCCC(CCC)S(=O)(=O)C[C@@H](NC(=O)c1cccc(O)c1)C(=O)N[C@@H](Cc1cc(F)cc(F)c1)[C@H](O)CNCc1cccc(CC)c1` gave an IC50 (Beta-secretase 1 [1]) of 2 nM and an EC50 (Beta-secretase 1 [2]) of 9 nM.

Work on `CCCC(CCC)S(=O)(=O)C[C@@H](NC(=O)c1cccnc1)C(=O)N[C@@H](Cc1cc(F)cc(F)c1)[C@H](O)CNCc1cccc(CC)c1` yielded an IC50 (Beta-secretase 1 [1]) of 1 nM and an EC50 (Beta-secretase 1 [2]) of 1 nM.

`CCCCS(=O)(=O)C[C@@H](NC(=O)C1CC1)C(=O)N[C@@H](Cc1cc(F)cc(F)c1)[C@H](O)CNCc1cccc(CC)c1` gave an IC50 (Beta-secretase 1 [1]) of 10 nM and an EC50 (Beta-secretase 1 [2]) of 4 nM.

For `CCCCS(=O)(=O)C[C@@H](NC(=O)COC)C(=O)N[C@@H](Cc1cc(F)cc(F)c1)[C@H](O)CNCc1cccc(CC)c1`, the IC50 (Beta-secretase 1 [1]) was 22 nM and the EC50 (Beta-secretase 1 [2]) was 4 nM.

`CCCCS(=O)(=O)C[C@@H](NC(=O)c1ccncc1)C(=O)N[C@@H](Cc1cc(F)cc(F)c1)[C@H](O)CNCc1cccc(CC)c1` was tested, and the IC50 (Beta-secretase 1 [1]) was 5 nM and the EC50 (Beta-secretase 1 [2]) was 1 nM.

Work on `CCCC(CCC)S(=O)(=O)C[C@@H](NC(=O)OCc1ccncc1)C(=O)N[C@@H](Cc1cc(F)cc(F)c1)[C@H](O)CNCc1cccc(CC)c1` yielded an IC50 (Beta-secretase 1 [1]) of 3 nM and an EC50 (Beta-secretase 1 [2]) of 5 nM.

`CCCC(CCC)S(=O)(=O)C[C@@H](NC(=O)c1ccc(C(F)(F)F)cc1)C(=O)N[C@@H](Cc1cc(F)cc(F)c1)[C@H](O)CNCc1cccc(CC)c1` showed an IC50 (Beta-secretase 1 [1]) of 53 nM and an EC50 (Beta-secretase 1 [2]) of 76 nM.

Work on `CCCC(CCC)S(=O)(=O)C[C@@H](NC(=O)c1ccc(C)cc1)C(=O)N[C@@H](Cc1cc(F)cc(F)c1)[C@H](O)CNCc1cccc(CC)c1` yielded an IC50 (Beta-secretase 1 [1]) of 4 nM and an EC50 (Beta-secretase 1 [2]) of 19 nM.

For `CCCC(CCC)S(=O)(=O)C[C@@H](NC(=O)OCc1ccccc1)C(=O)N[C@@H](Cc1cc(F)cc(F)c1)[C@H](O)CNCc1cccc(CC)c1`, the IC50 (Beta-secretase 1 [1]) was 3 nM.

In the case of `CCCCS(=O)(=O)C[C@@H](NC(=O)OCc1cccnc1)C(=O)N[C@@H](Cc1cc(F)cc(F)c1)[C@H](O)CNCc1cccc(CC)c1`, the IC50 (Beta-secretase 1 [1]) is reported as 10 nM and the EC50 (Beta-secretase 1 [2]) is reported as 0.6 nM.

In the case of `CCCCS(=O)(=O)C[C@@H](NC(=O)c1cccnc1)C(=O)N[C@@H](Cc1cc(F)cc(F)c1)[C@H](O)CNCc1cccc(CC)c1`, the IC50 (Beta-secretase 1 [1]) is reported as 2 nM and the EC50 (Beta-secretase 1 [2]) is reported as 1 nM.

In the case of `CCCCS(=O)(=O)C[C@@H](NC(=O)OC)C(=O)N[C@@H](Cc1cc(F)cc(F)c1)[C@H](O)CNCc1cccc(CC)c1`, the IC50 (Beta-secretase 1 [1]) is reported as 4 nM and the EC50 (Beta-secretase 1 [2]) is reported as 2 nM.

With `CCCCS(=O)(=O)C[C@@H](NC(=O)c1cc(C)n[nH]1)C(=O)N[C@@H](Cc1cc(F)cc(F)c1)[C@H](O)CNCc1cccc(CC)c1` the IC50 (Beta-secretase 1 [1]) was 4 nM and the EC50 (Beta-secretase 1 [2]) was 4 nM.

`CCCC(CCC)S(=O)(=O)C[C@@H](NC(=O)c1ccccc1)C(=O)N[C@@H](Cc1cc(F)cc(F)c1)[C@H](O)CNCc1cccc(CC)c1` was tested, and the IC50 (Beta-secretase 1 [1]) was 495 nM and the EC50 (Beta-secretase 1 [2]) was 14 nM.

In the case of `CCCCS(=O)(=O)C[C@@H](NC(=O)SC1CCOC1)C(=O)N[C@@H](Cc1cc(F)cc(F)c1)[C@H](O)CNCc1cccc(CC)c1` (some centres undefined), the IC50 (Beta-secretase 1 [1]) is reported as 15 nM and the EC50 (Beta-secretase 1 [2]) is reported as 4 nM.

For `CCCCS(=O)(=O)C[C@@H](NC(=O)OCC(F)(F)F)C(=O)N[C@@H](Cc1cc(F)cc(F)c1)[C@H](O)CNCc1cccc(CC)c1`, the IC50 (Beta-secretase 1 [1]) was 4 nM.

In the case of `CCCCS(=O)(=O)C[C@@H](NC(=O)OCc1ccncc1)C(=O)N[C@@H](Cc1cc(F)cc(F)c1)[C@H](O)CNCc1cccc(CC)c1`, the IC50 (Beta-secretase 1 [1]) is reported as 11 nM and the EC50 (Beta-secretase 1 [2]) is reported as 2 nM.

With `CCCC(CCC)S(=O)(=O)C[C@@H](NC(=O)c1ccccc1C)C(=O)N[C@@H](Cc1cc(F)cc(F)c1)[C@H](O)CNCc1cccc(CC)c1` the IC50 (Beta-secretase 1 [1]) was 15 nM and the EC50 (Beta-secretase 1 [2]) was 59 nM.

Compound `CCCCS(=O)(=O)C[C@@H](NC(=O)c1cnccn1)C(=O)N[C@@H](Cc1cc(F)cc(F)c1)[C@H](O)CNCc1cccc(CC)c1` has an IC50 (Beta-secretase 1 [1]) of 4 nM and an EC50 (Beta-secretase 1 [2]) of 0.2 nM.

`CCCCS(=O)(=O)C[C@@H](NC(C)=O)C(=O)N[C@@H](Cc1cc(F)cc(F)c1)[C@H](O)CNCc1cccc(CC)c1` gave an IC50 (Beta-secretase 1 [1]) of 13 nM and an EC50 (Beta-secretase 1 [2]) of 6 nM.

`CCCC(CCC)S(=O)(=O)C[C@@H](NC(=O)c1ccc(OC)cc1)C(=O)N[C@@H](Cc1cc(F)cc(F)c1)[C@H](O)CNCc1cccc(CC)c1` showed an IC50 (Beta-secretase 1 [1]) of 2 nM and an EC50 (Beta-secretase 1 [2]) of 11 nM.
